Source: paper PMC4431585, “Identification and Characterization of a Small-Molecule Inhibitor of Death-Associated Protein Kinase 1” (Chembiochem, 2014)
Entries after “also recorded” stand apart in the source; their conditions may differ.

Experiments:
[1] = biological target: T1, DAPK1 (Homo sapiens, UniProt P53355); experiment: Caliper microfluidics capillary electrophoresis high-throughput enzymatic assay for DAPK1; assay type: biochemical
T1 construct: First the catalytic domain of DAPK1 (residues 1–285) was cloned,[14] expressed in Escherichia coli, and purified; made in house; host or cells: Escherichia coli
T1 sequence (P53355 1-285): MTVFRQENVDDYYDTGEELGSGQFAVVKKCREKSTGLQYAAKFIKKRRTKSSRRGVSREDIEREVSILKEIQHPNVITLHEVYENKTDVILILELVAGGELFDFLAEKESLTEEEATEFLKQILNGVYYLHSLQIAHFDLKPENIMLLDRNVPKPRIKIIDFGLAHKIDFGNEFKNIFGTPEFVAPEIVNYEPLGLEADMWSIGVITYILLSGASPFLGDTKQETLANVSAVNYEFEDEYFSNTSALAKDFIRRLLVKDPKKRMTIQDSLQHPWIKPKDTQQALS
Excerpt: For this, we established a high-throughput enzymatic screening assay for DAPK1. […] This peptide was used in a Caliper microfluidics capillary electrophoresis assay, which separates phosphorylated peptide product from the non-phosphorylated peptides in microcapillaries. The fluorescently labeled peptide enabled quantification in real time and thus determination of reaction velocities.

[2] = biological target: T1, DAPK1; experiment: In vitro phosphorylation assay with DAPK1 (analytical HPLC); assay type: biochemical; settings: for phosphorylation by DAPK1 (peptide as substrate): peptide 50 μM, ATP 100 μM, n=3
Excerpt: CaMKII and DAPK1 share a number of notable structural and functional properties. In particular both kinases harbor a calmodulin-binding sequence and an autoregulatory domain (ARD) next to the catalytic domain and are therefore regulated by calmodulin (or proteins with calmodulin-like domains).[10] There are also notable differences between the two kinases, for example DAPK1 is active only in its non-phosphorylated form,[11] whereas activation of CaMKII is more complex.[12] […] Thus it is proposed that phosphorylation of Ser1303 and co-localization are responsible for the regulation of calcium influx by NMDA receptors (Figure 1). To investigate the mechanistic details of DAPK1/NMDA receptor interactions further, including differences between GluN2A and GluN2B, we used in vitro phosphorylation assays. First the catalytic domain of DAPK1 (residues 1–285) was cloned,[14] expressed in Escherichia coli, and purified; the reference substrate Peptide38[2d] ([…]) and the 13-mer peptide N2B13 (1, GluN2B1292–1304, […]; Figure 2 A) were prepared. […] Thus, clearly Ser1303 in 1 is not phosphorylated by DAPK1 in vitro.
(§1) Figure 2 Comparison of peptide substrates containing Ser1303 (GluN2B) or Ser1291 (GluN2A). A) Alignment of peptides used in in vitro phosphorylation studies. B) Phosphorylation by DAPK1. C) Phosphorylation by CaMKII. Control substrates are shown with dashed lines. Degrees of phosphorylation were assessed by analytical HPLC (n=3, mean±SD). Concentration: peptide 50 μM, ATP 100 μM, kinase concentration was adjusted to fit the timescale. For further details see the Supporting Information.
(§2) This prompted us to examine related peptides derived from GluN2B and GluN2A (Figure 2 A) and we compared in vitro phosphorylation of these peptides by using both recombinant DAPK1 and CaMKII. […] Next we studied the corresponding 13- and 23-mer GluN2A peptides, N2A13 (4, GluN2A1280–1292, […]) and N2A23 (5, GluN2A1280–1302, […]); for both, Ser1291 corresponds to Ser1303 in GluN2B.

[3] = tested on: CAMKII; experiment: In vitro phosphorylation assay with CaMKII (analytical HPLC); assay type: biochemical; settings: peptide 50 μM, ATP 100 μM, n=3
Method: as §1, §2

[4] = biological target: T2, catalytic domain of DAPK1 (residues 1–285) (Homo sapiens, UniProt P53355); experiment: Isothermal titration calorimetry (ITC); assay type: binding; settings: n=4, read-out: equilibrium dissociation constant (Kd)
T2 construct: First the catalytic domain of DAPK1 (residues 1–285) was cloned,[14] expressed in Escherichia coli, and purified; made in house; host or cells: Escherichia coli
T2 sequence (P53355 1-285): as above
Method: (§3) Compound 6 was tested in primary screening against a number of other kinases (SRC, BLK, AKT3, JAK2, PAK4, PAK7, PIM1, PIM2, CAMKI, and CAMKII); 60 % inhibition at 10 μM compound was used as the cut-off limit. […] Thus 6 was clearly an interesting compound.
Figure 3 Representative ITC of the catalytic domain of DAPK1 (residues 1–285) into 6.

[5] = biological target: JAK2 (Homo sapiens, UniProt O60674); experiment: Kinase selectivity screening, JAK2; assay type: biochemical
Chain of JAK2 (O60674 whole entry, species assumed): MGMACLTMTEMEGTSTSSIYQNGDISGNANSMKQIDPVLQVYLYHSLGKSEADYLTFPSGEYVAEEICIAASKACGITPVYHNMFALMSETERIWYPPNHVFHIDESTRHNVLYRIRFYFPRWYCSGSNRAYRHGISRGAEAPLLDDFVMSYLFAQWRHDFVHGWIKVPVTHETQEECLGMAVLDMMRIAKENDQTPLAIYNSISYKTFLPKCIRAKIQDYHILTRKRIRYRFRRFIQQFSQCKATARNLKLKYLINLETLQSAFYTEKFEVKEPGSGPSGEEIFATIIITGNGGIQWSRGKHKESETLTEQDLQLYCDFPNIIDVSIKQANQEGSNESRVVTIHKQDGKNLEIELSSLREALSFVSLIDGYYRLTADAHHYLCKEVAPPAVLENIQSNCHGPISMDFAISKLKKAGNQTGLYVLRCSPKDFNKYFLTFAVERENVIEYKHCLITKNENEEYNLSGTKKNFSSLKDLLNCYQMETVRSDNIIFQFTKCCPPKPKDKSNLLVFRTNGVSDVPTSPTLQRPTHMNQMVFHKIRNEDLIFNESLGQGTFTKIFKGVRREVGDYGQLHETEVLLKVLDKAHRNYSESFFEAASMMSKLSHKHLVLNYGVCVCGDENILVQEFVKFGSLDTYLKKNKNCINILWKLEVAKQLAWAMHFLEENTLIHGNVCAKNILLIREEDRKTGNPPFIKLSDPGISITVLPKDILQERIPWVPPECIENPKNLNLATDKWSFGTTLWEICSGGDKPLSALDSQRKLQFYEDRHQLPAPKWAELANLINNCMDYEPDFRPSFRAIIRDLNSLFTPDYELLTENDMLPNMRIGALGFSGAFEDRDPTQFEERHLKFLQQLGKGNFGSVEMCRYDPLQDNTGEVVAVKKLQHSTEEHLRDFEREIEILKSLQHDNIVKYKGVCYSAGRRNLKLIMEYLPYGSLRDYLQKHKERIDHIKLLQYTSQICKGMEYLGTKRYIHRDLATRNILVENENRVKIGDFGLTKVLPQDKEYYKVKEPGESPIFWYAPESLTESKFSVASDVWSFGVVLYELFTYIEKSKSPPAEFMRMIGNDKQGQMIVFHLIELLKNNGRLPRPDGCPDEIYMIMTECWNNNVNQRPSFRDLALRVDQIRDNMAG
Method: as §3

[6] = biological target: PAK7 (Homo sapiens, UniProt Q9P286); experiment: Kinase selectivity screening, PAK7; assay type: biochemical
Chain of PAK7 (Q9P286 whole entry, species assumed): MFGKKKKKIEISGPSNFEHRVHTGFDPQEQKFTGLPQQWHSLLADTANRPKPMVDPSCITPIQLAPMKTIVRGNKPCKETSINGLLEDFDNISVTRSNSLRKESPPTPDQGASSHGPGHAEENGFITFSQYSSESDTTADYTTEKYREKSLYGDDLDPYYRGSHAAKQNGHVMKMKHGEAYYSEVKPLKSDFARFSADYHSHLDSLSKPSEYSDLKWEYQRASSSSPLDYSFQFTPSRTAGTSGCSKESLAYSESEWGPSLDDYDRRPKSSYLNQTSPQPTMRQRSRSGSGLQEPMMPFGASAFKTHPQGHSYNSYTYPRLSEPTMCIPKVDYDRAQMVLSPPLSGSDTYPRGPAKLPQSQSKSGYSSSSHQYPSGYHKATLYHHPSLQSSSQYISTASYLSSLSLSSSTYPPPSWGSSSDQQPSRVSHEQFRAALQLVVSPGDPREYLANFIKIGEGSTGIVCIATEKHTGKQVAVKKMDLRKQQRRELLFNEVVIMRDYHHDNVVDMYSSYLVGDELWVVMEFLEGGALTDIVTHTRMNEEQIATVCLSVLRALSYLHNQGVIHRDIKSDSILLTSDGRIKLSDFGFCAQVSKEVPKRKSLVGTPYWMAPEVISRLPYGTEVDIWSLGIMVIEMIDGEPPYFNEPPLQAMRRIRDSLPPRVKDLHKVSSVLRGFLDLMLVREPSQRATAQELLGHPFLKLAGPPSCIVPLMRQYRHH
Method: as §3

[7] = tested on: CAMKII; experiment: Kinase selectivity primary screening, CAMKII; assay type: biochemical; settings: 60 % inhibition at 10 μM compound as cut-off limit
Method: as §3

[8] = biological target: SRC (Homo sapiens, UniProt P12931); experiment: Kinase selectivity screening, SRC; assay type: biochemical
Chain of SRC (P12931 whole entry, species assumed): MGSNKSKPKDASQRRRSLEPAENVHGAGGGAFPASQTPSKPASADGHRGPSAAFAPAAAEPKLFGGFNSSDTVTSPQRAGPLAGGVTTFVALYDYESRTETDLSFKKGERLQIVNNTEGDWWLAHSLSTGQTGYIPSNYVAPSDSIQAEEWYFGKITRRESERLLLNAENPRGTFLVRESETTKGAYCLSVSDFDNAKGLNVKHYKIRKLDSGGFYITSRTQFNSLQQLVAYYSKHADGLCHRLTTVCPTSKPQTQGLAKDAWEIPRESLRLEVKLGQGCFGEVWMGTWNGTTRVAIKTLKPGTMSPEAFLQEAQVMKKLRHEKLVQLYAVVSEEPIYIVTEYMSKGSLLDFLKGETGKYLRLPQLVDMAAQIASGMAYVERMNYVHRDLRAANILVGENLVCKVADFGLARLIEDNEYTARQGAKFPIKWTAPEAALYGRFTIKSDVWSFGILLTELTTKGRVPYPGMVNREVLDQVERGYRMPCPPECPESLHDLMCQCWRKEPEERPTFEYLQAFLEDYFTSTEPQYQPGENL
Method: as §3

[9] = biological target: PIM1 (Homo sapiens, UniProt P11309); experiment: Kinase selectivity screening, PIM1; assay type: biochemical
Chain of PIM1 (P11309 whole entry, species assumed): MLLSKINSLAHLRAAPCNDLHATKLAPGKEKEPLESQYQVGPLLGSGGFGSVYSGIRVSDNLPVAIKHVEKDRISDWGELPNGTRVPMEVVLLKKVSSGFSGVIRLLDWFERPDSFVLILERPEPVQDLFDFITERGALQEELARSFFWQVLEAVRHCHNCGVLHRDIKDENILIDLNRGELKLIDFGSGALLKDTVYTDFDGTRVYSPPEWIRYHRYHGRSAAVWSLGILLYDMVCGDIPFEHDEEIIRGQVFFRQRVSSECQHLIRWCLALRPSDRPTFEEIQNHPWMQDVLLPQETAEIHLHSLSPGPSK
Method: as §3

| Compound | phosphorylation by DAPK1 (peptide as substrate) [2] | phosphorylation by CaMKII (peptide as substrate) [3] | also measured |
| --- | --- | --- | --- |
| Nc1ncnc2c1ncn2[C@@H]1O[C@H](COP(=O)(O)OP(=O)(O)OP(=O)(O)O)[C@@H](O)[C@H]1O [ATP] |  |  | Km ([1]; DAPK1, read-out: Km for ATP): 1240 nM |
| KKRPQRRYSNVF [peptide38, reference compound] | excellent substrate |  |  |
| QKNKLRISRQHSY [Peptide 4, 13-mer GluN2A peptide] | none of these peptides was phosphorylated | phosphorylated at a similar rate and to the same degree as the control peptide |  |
| QKNKLRISRQHSYDNIVDKPREL [Peptide 5, 23-mer GluN2A peptide] | none of these peptides was phosphorylated | phosphorylated at a similar rate and to the same degree as the control peptide |  |
| COc1cc(-c2ccc3ncc(-c4cccc(C(=O)NCCN(C)C)c4)n3n2)ccc1O [Compound 6] |  |  | IC50 ([1]; DAPK1, Caliper assay, 5FAM-Peptide38 substrate, ATP approximately 2×Km): 247 nM; Kd [4]: 240 ± 90 nM; inhibition in the in vitro phosphorylation assay ([2]; DAPK1): showed inhibition; IC50 [5]: 1800 nM; IC50 [6]: 5.6 µM; primary screening [7]: did not to pass the primary screening; IC50 [8]: 150 nM; IC50 [9]: 1600 nM |
| KKNRKKNRNKLRRQHAYDTFVDLQKEE [Peptide 3, N2B23 with Ser1303 substituted with Ala] | prevented phosphorylation | neither the longer GluN2B peptide, N2B23 (2), nor its Ala mutant, 3, was phosphorylated |  |
| KKNRNKLRQHSY [Peptide 1, 13-mer peptide N2B13, GluN2B1292–1304] | strongly repressed | phosphorylated in a similar manner | inhibitory effect on phosphorylation of peptide 2 ([2]; DAPK1, in vitro, data not shown): no in vitro inhibitory effect; also recorded: did not observe any effect |
| KKNRKKNRNKLRRQHSYDTFVDLQKEE [Peptide 2, 23-mer GluN2B peptide with ten additional C-terminal amino acids] | phosphorylation to a degree similar to that for the reference substrate | neither the longer GluN2B peptide, N2B23 (2), nor its Ala mutant, 3, was phosphorylated |  |
